Test systems include SNB-78 CNS; DMS 114 small cell lung; M19-MEL melanoma; LXFL 529 NSCLC; RXF-631 renal; HOP-18 NSCLC; XF 498 CNS; P388 leukemia; P388/ADR leukemia; SN12K1 renal.
Common to all, as to assay: NCI tumour cell line growth inhibition, 48 h

The text below walks through data of PubChem BioAssay (NCI).

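Following 48 hours of exposure in 96-well plates, responses at five concentrations were used to interpolate endpoints linearly. The concentration for 50% growth inhibition is given as GI50. Definition used: TGI = concentration required for complete inhibition of growth.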

For `CC(C)CCS(=O)(=O)OCCCCOS(=O)(=O)CCC(C)C`, the TGI in the assay on SNB-78 CNS, with DMS 114 small cell lung, in the assay on M19-MEL melanoma and in the assay on LXFL 529 NSCLC was greater than 100 µM each time.
As for `CCCCC#C[I+]c1ccccc1`, the TGI in the assay on RXF-631 renal was 35.6 µM; with HOP-18 NSCLC, 27.6 µM; in the assay with SNB-78 CNS, 60.3 µM; in the assay with M19-MEL melanoma, 30.1 µM; with XF 498 CNS, 28.6 µM; with LXFL 529 NSCLC, 24.6 µM.
Take `Cc1c(O)c(O)cc[n+]1C1OC(CO)C(O)C1O` (stereo not drawn): the TGI with HOP-18 NSCLC, with SNB-78 CNS, in the assay with M19-MEL melanoma and in the assay on LXFL 529 NSCLC was greater than 100 µM throughout.
Regarding `O=C(NC(=O)c1ccccc1[N+](=O)[O-])Nc1ccc(Oc2ncc(Br)cn2)c(Cl)c1`, the values for the TGI with RXF-631 renal and in the assay on HOP-18 NSCLC were 0.056 µM and greater than 100 µM, respectively. Also, the GI50 with HOP-18 NSCLC is greater than 100 µM; with DMS 114 small cell lung, 0.00331 µM; with M19-MEL melanoma, less than 0.0229 µM; in the assay with XF 498 CNS, less than 0.0251 µM; in the assay on LXFL 529 NSCLC, less than 0.0224 µM.
`O=C(CCN1CCCCC1)C(=Cc1ccccc1)C(=O)CCN1CCCCC1`: the TGI in the assay on P388 leukemia was greater than 31.6 µM; in the assay with HOP-18 NSCLC it was greater than 100 µM; in the assay on SNB-78 CNS, greater than 100 µM; with P388/ADR leukemia, greater than 72.4 µM; with SN12K1 renal, greater than 100 µM; with M19-MEL melanoma, greater than 100 µM. Further, the TGI with XF 498 CNS is greater than 100 µM. For the same compound, the GI50 was greater than 100 µM with HOP-18 NSCLC, 3.5 µM with SNB-78 CNS, 38.7 µM in the assay on DMS 114 small cell lung and 5.35 µM in the assay with XF 498 CNS.
As for `CCC(C(=O)O)c1ccc(OC)cc1` (stereo not drawn), the TGI with RXF-631 renal, in the assay on SNB-78 CNS, in the assay with DMS 114 small cell lung, in the assay with M19-MEL melanoma, with XF 498 CNS and in the assay with LXFL 529 NSCLC was greater than 100 µM in each case.
